Data set [1] is described as follows: Time-resolved emission spectroscopy (luminescence decay kinetics). It counts as physicochemical. Conditions: degassed dichloromethane; excited 355 nm, monitored 560 nm. As for the experimental part: Time-resolved emission spectroscopy was used to characterize the MLCT excited state of the D-B-A complex. Luminescence decay kinetics were recorded in degassed dichloromethane. The D-B-A complex was excited at 355 nm with an 8-ns laser pulse and luminescence was monitored at 560 nm. […] For comparison, the MLCT lifetime of the reference complex, [Re(CO)3(bpy)(py)]+, determined under identical experimental conditions, is 550 ns.
While the rate of intramolecular ET is concentration independent, intermolecular quenching processes vary predictably with concentration. As such, it is possible to separate the two quenching mechanisms and obtain rate constants for each. Time-resolved luminescence measurements at a series of D-B-A concentrations allow a second order intermolecular quenching rate to be determined. As the concentration was increased, shorter lifetimes were recorded in both dichloromethane and acetonitrile.
This lifetime includes both the natural decay of the photoexcited rhenium as well as quenching through intramolecular electron transfer. […] As the difference in lifetime of the D-B-A and model complex is quite small, these values should be considered upper bounds.

Data set [2] relates to chromaffin cells. Nature of the data set: Cell-attached membrane perforation test (capacitive charging transient). It counts as cell-based, mouse. The note with it: positive control in pipette; within 5 minutes of gigaseal formation. The source says:
FIGS. 5A-5H depict data from various experiments related to characteristics of RubpyC17-loaded cells. […] Inset images shown to the right of trace confirmed proper integration of RubpyC17 in patched cells. FIGS. 5C-5E show the light-induced action potential firing in chromaffin cells was not due to biophysical changes in voltage-gated ion channels as there were no significant changes in current-voltage relationships (C-D) nor in steady-state activation curve (E) in RubpyC17-loaded chromaffin cells before (open circle) or during ([…]) light illumination. […] Peak inward currents from each stimulation jump were plotted against corresponding stimulating voltages (n=6). […] Data from representative cell is shown (n=5). […] Currents resulting from capacitor-like behavior of chromaffin cell membranes during hyperpolarizing jumps to −85 mV from a resting membrane potential of −80 mV were recorded 5 min following giga-seal formation for amphoterecin B (bottom trace) or 10 min following giga-seal formation for RubpyC17 (top trace).
Finally, to test whether illumination of RubpyC17 incorporated in cell membranes causes nonspecific membrane poration or other damage, 18 μM RubpyC17 was loaded inside a patch pipette and attached to a cell (gigaseal formation) in the cell-attached configuration. […]

Each structure is given as a SMILES string.

Take `[C-]#[O+].[C-]#[O+].[C-]#[O+].[Re+].c1ccc(-c2ccccn2)nc1.c1ccncc1` [[Re(CO)3(bpy)(py)]+]: the “luminescence (MLCT) lifetime” value in data set [1] is listed as 550 ns.
Regarding `C[C@@H]1[C@H](O)[C@@H](C)/C=C/C=C/C=C/C=C/C=C/C=C/C=C/[C@H](O[C@@H]2O[C@H](C)[C@@H](O)[C@H](N)[C@@H]2O)C[C@@H]2O[C@](O)(C[C@@H](O)C[C@@H](O)[C@H](O)CC[C@@H](O)C[C@@H](O)CC(=O)O[C@H]1C)C[C@H](O)[C@H]2C(=O)O` [amphotericin B, reference compound], in data set [2], the “capacitive charging transient (membrane perforation)” value is recorded as “a sizable capacitive charging transient”.
